Here are results for 12 compounds from ChEMBL document CHEMBL3137667, “[Drug-induced liver injury; fourteenth updated edition of the bibliographic database of liver injuries and related drugs]” (Gastroenterol Clin Biol, 2004).

A short description of data set [1]: Highest frequency of moderate liver toxicity observed during clinical trials, expressed as a percentage. [column '% BIOL' in source]. The settings on record: human.
Data set [2] can be described thus: Highest frequency of acute liver toxicity observed during clinical trials, expressed as a percentage. [column '% AIGUE' in source]. The settings on record: human.
The conditions of data set [3]: human, serum.
For data set [4] the following is noted: human, serum. The source holds these as a separate data set.
For data set [5] the following is noted: human.
The conditions of data set [6]: human. This is another data set of the same source.
The conditions of data set [7]: human. This is another data set of the same source.
The conditions of data set [8]: human, serum, 4383 h.
For data set [9] the following is noted: human. This is another data set of the same source.
For data set [10] the following is noted: human. The source holds these as a separate data set.
The conditions of data set [11]: human. This is another data set of the same source.
The conditions of data set [12]: human. The source holds these as a separate data set.
The conditions of data set [13]: human. This is another data set of the same source.
The conditions of data set [14]: human. This is another data set of the same source.
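For Hepatotoxicity (association with vascular disease) in this document: count of indexed literature references reporting vascular liver injury in humans, e.g. peliosis hepatitis, hepatic veno-occlusive disease or Budd-Chiari syndrome.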
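For Hepatotoxicity (benign tumour) in this document: value is a count of indexed literature references citing a benign tumour confirmed by histopathology.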
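For Hepatotoxicity (choleostasis) in this document: human cholestatic liver injury, shown by histopathology or by peak ALT or AST elevation over alkaline phosphatase ratio below 2, value counts indexed literature reports.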
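For Hepatotoxicity (chronic liver disease) in this document: chronic liver injury confirmed by histopathology or persistently raised serum aminotransferase activity beyond 6 months, value given as the count of indexed literature references.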
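For Hepatotoxicity (cirrhosis) in this document: value is a count of indexed literature references reporting cirrhosis confirmed by histopathology.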
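For Hepatotoxicity (cytolytic) in this document: human cytolytic liver injury, shown by histopathology or by a ratio above 5 of peak ALT or AST elevation to alkaline phosphatase elevation, value counts indexed references.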
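For Hepatotoxicity (granulomatous hepatitis) in this document: value is a count of indexed literature references reporting granulomatous liver disease confirmed by histopathology.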
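For Hepatotoxicity (malignant tumour) in this document: malignant tumour confirmed by histopathology, value gives the count of indexed literature references reporting it.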
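For Hepatotoxicity (severe hepatitis) in this document: human clinical data: severe hepatitis, meaning potentially life-threatening liver failure or clinically observed cases, the value counts how many indexed literature references report it.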
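For Hepatotoxicity (steatosis) in this document: steatosis confirmed by histopathology, value is the count of indexed references.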

For `CO/N=C(\C(=O)N[C@@H]1C(=O)N2C(C(=O)[O-])=C(C[n+]3cccc4c3CCC4)CS[C@H]12)c1csc(N)n1` [CEFPIROME], the results for the “Hepatotoxicity (moderate)” value in data set [1] and in [3] were 33.3% and 62, respectively. In addition, the figures for the “Hepatotoxicity (acute)” value in data set [2] and in [4] were 0% and 0, respectively. For the same compound, in data set [5], the “Hepatotoxicity (cytolytic)” value was 0. The “Hepatotoxicity (choleostasis)” value in data set [6] came out at 0. In addition, in data set [7], the “Hepatotoxicity (severe hepatitis)” value is listed as 0. The “Hepatotoxicity (chronic liver disease)” value in [8] is on record as 0. For the same compound, the “Hepatotoxicity (cirrhosis)” value in data set [9] worked out at 0. For the same compound, the “Hepatotoxicity (granulomatous hepatitis)” value in data set [10] was 0. For the same compound, the “Hepatotoxicity (association with vascular disease)” value in data set [11] came out at 0. In data set [12], the “Hepatotoxicity (steatosis)” value was determined as 0. Besides, the “Hepatotoxicity (malignant tumour)” value in data set [13] is recorded as 0. The “Hepatotoxicity (benign tumour)” value in data set [14] turned out to be 0.
Turning to `CO[C@@]1(NC(=O)CSCC#N)C(=O)N2C(C(=O)O)=C(CSc3nnnn3C)CS[C@@H]21` [CEFMETAZOLE], the “Hepatotoxicity (moderate)” value came out at 9.1% in data set [1] and 5 in data set [3]. The “Hepatotoxicity (acute)” value in data set [2] was 0%; in data set [4] it was 0. Moreover, the “Hepatotoxicity (cytolytic)” value in data set [5] is 0. Besides, in data set [6], the “Hepatotoxicity (choleostasis)” value came to 0. Moreover, the “Hepatotoxicity (severe hepatitis)” value in data set [7] stood at 0. In data set [8], the “Hepatotoxicity (chronic liver disease)” value is reported as 0. Moreover, the “Hepatotoxicity (cirrhosis)” value in data set [9] is on record as 0. In addition, in data set [10], the “Hepatotoxicity (granulomatous hepatitis)” value was determined as 0. Moreover, the “Hepatotoxicity (association with vascular disease)” value in [11] was found to be 0. The “Hepatotoxicity (steatosis)” value in data set [12] turned out to be 0. The “Hepatotoxicity (malignant tumour)” value in data set [13] is 0. In data set [14], the “Hepatotoxicity (benign tumour)” value came to 0.
Turning to `CN1CCN(c2c(F)cc3c(=O)c(C(=O)O)cn(CCF)c3c2F)CC1` [FLEROXACIN], the “Hepatotoxicity (moderate)” value is listed as 8.3% in [1] and 13 in [3]. Besides, the “Hepatotoxicity (acute)” value in [2] was 0%; in data set [4], 0. Further, the “Hepatotoxicity (cytolytic)” value in data set [5] was determined as 0. The “Hepatotoxicity (choleostasis)” value in [6] was 0. Besides, the “Hepatotoxicity (severe hepatitis)” value in data set [7] is 0. Also, the “Hepatotoxicity (chronic liver disease)” value in data set [8] stood at 0. Further, the “Hepatotoxicity (cirrhosis)” value in data set [9] is recorded as 0. Moreover, the “Hepatotoxicity (granulomatous hepatitis)” value in [10] amounted to 0. Besides, the “Hepatotoxicity (association with vascular disease)” value in [11] came out at 0. The “Hepatotoxicity (steatosis)” value in [12] is given as 0. In addition, in [13], the “Hepatotoxicity (malignant tumour)” value was determined as 0. Further, in data set [14], the “Hepatotoxicity (benign tumour)” value turned out to be 0.
`CO[C@H]1/C=C/O[C@@]2(C)Oc3c(C)c(O)c4c(O)c(c5c(nc6cc(C)ccn65)c4c3C2=O)NC(=O)/C(C)=C\C=C\[C@H](C)[C@H](O)[C@@H](C)[C@@H](O)[C@@H](C)[C@H](OC(C)=O)[C@@H]1C` [RIFAXIMIN]: the “Hepatotoxicity (moderate)” value was found to be 26.7% in data set [1] and 27 in [3]. In addition, the “Hepatotoxicity (acute)” value in data set [2] is recorded as 0%; in data set [4], 0. Also, in [5], the “Hepatotoxicity (cytolytic)” value amounted to 0. The “Hepatotoxicity (choleostasis)” value in data set [6] was determined as 0. The “Hepatotoxicity (severe hepatitis)” value in data set [7] is recorded as 0. Further, the “Hepatotoxicity (chronic liver disease)” value in data set [8] came to 0. In addition, in data set [9], the “Hepatotoxicity (cirrhosis)” value was 0. Moreover, the “Hepatotoxicity (granulomatous hepatitis)” value in [10] was 0. Moreover, in [11], the “Hepatotoxicity (association with vascular disease)” value amounted to 0. In addition, the “Hepatotoxicity (steatosis)” value in data set [12] is 0. Further, the “Hepatotoxicity (malignant tumour)” value in data set [13] is listed as 0. Further, the “Hepatotoxicity (benign tumour)” value in [14] is reported as 0.
Take PALIVIZUMAB: the “Hepatotoxicity (moderate)” value came to 3.6% in [1] and 1 in data set [3]. In addition, the “Hepatotoxicity (acute)” value in data set [2] amounted to 0%; in data set [4], 0. Further, the “Hepatotoxicity (cytolytic)” value in data set [5] is 0. Further, in [6], the “Hepatotoxicity (choleostasis)” value is given as 0. The “Hepatotoxicity (severe hepatitis)” value in [7] is listed as 0. The “Hepatotoxicity (chronic liver disease)” value in data set [8] came to 0. Also, the “Hepatotoxicity (cirrhosis)” value in data set [9] stood at 0. In addition, the “Hepatotoxicity (granulomatous hepatitis)” value in data set [10] was 0. Moreover, in [11], the “Hepatotoxicity (association with vascular disease)” value was determined as 0. The “Hepatotoxicity (steatosis)” value in data set [12] is 0. In addition, the “Hepatotoxicity (malignant tumour)” value in [13] was determined as 0. For the same compound, the “Hepatotoxicity (benign tumour)” value in data set [14] stood at 0.
For the compound `COCCCN1CCC(NC(=O)c2cc(Cl)c(N)c3c2OCC3)CC1` [PRUCALOPRIDE], the “Hepatotoxicity (moderate)” value in data set [1] came to 5.9%; in data set [3] it was 1. The results for the “Hepatotoxicity (acute)” value in [2] and in [4] were 0% and 0, respectively. Also, in [5], the “Hepatotoxicity (cytolytic)” value came to 0. Besides, the “Hepatotoxicity (choleostasis)” value in data set [6] is recorded as 0. In addition, the “Hepatotoxicity (severe hepatitis)” value in data set [7] is 0. Moreover, in data set [8], the “Hepatotoxicity (chronic liver disease)” value was 0. Besides, the “Hepatotoxicity (cirrhosis)” value in data set [9] worked out at 0. Further, the “Hepatotoxicity (granulomatous hepatitis)” value in [10] came to 0. The “Hepatotoxicity (association with vascular disease)” value in data set [11] was 0. In addition, the “Hepatotoxicity (steatosis)” value in data set [12] is 0. Also, the “Hepatotoxicity (malignant tumour)” value in data set [13] is on record as 0. In addition, the “Hepatotoxicity (benign tumour)” value in data set [14] is given as 0.
`COCC1=C(C(=O)O)N2C(=O)[C@@H](NC(=O)/C(=N\OC)c3csc(N)n3)[C@H]2SC1` [CEFPODOXIME]: the results for the “Hepatotoxicity (moderate)” value in [1] and in data set [3] were 33.3% and 29, respectively. In addition, the “Hepatotoxicity (acute)” value in [2] came to 0%; in [4], 0. Moreover, the “Hepatotoxicity (cytolytic)” value in data set [5] was 0. In addition, in data set [6], the “Hepatotoxicity (choleostasis)” value was 0. Besides, in data set [7], the “Hepatotoxicity (severe hepatitis)” value came to 0. The “Hepatotoxicity (chronic liver disease)” value in data set [8] is recorded as 0. In addition, the “Hepatotoxicity (cirrhosis)” value in data set [9] stood at 0. Moreover, the “Hepatotoxicity (granulomatous hepatitis)” value in [10] was determined as 0. Also, the “Hepatotoxicity (association with vascular disease)” value in [11] is 0. The “Hepatotoxicity (steatosis)” value in data set [12] was determined as 0. Besides, in data set [13], the “Hepatotoxicity (malignant tumour)” value turned out to be 0. Besides, in data set [14], the “Hepatotoxicity (benign tumour)” value stood at 0.
With `CCC(Cc1cnc2nc(N)nc(N)c2n1)c1ccc(C(=O)N[C@@H](CCC(=O)O)C(=O)O)cc1` (stereo partly drawn) [EDATREXATE], the “Hepatotoxicity (moderate)” value in [1] is listed as 30%; in data set [3], 8. For the same compound, the “Hepatotoxicity (acute)” value was 3.2% in data set [2] and 2 in data set [4]. Besides, the “Hepatotoxicity (cytolytic)” value in data set [5] is on record as 2. Besides, the “Hepatotoxicity (choleostasis)” value in data set [6] is on record as 0. In addition, the “Hepatotoxicity (severe hepatitis)” value in [7] was found to be 0. The “Hepatotoxicity (chronic liver disease)” value in data set [8] stood at 0. Further, the “Hepatotoxicity (cirrhosis)” value in data set [9] was found to be 0. Also, in [10], the “Hepatotoxicity (granulomatous hepatitis)” value amounted to 0. Further, in data set [11], the “Hepatotoxicity (association with vascular disease)” value was determined as 0. Also, the “Hepatotoxicity (steatosis)” value in data set [12] was found to be 0. Also, the “Hepatotoxicity (malignant tumour)” value in [13] turned out to be 0. For the same compound, the “Hepatotoxicity (benign tumour)” value in [14] stood at 0.
For the compound `CCOC(=O)Nc1ccc(NCc2ccc(F)cc2)nc1N` [FLUPIRTINE], the “Hepatotoxicity (moderate)” value in data set [1] was determined as 10%; in data set [3], 2. For the same compound, the figures for the “Hepatotoxicity (acute)” value in data set [2] and in data set [4] were 0% and 0, respectively. The “Hepatotoxicity (cytolytic)” value in data set [5] is reported as 0. The “Hepatotoxicity (choleostasis)” value in [6] was 0. In addition, in [7], the “Hepatotoxicity (severe hepatitis)” value worked out at 0. Moreover, in data set [8], the “Hepatotoxicity (chronic liver disease)” value worked out at 0. Further, the “Hepatotoxicity (cirrhosis)” value in data set [9] came to 0. The “Hepatotoxicity (granulomatous hepatitis)” value in [10] is given as 0. The “Hepatotoxicity (association with vascular disease)” value in [11] amounted to 0. The “Hepatotoxicity (steatosis)” value in data set [12] was 0. In data set [13], the “Hepatotoxicity (malignant tumour)” value was found to be 0. In addition, the “Hepatotoxicity (benign tumour)” value in data set [14] is 0.
As to `COc1ccc(C(=O)N2CCN(c3ccc4c(c3)CCC(=O)N4)CC2)cc1OC` [VESNARINONE], the figures for the “Hepatotoxicity (moderate)” value in data set [1] and in data set [3] were 0.4% and 1, respectively. Further, the “Hepatotoxicity (acute)” value in [2] worked out at 0%; in [4], 0. In [5], the “Hepatotoxicity (cytolytic)” value was 0. In [6], the “Hepatotoxicity (choleostasis)” value is reported as 0. Besides, the “Hepatotoxicity (severe hepatitis)” value in data set [7] is on record as 0. Further, the “Hepatotoxicity (chronic liver disease)” value in [8] is given as 0. In data set [9], the “Hepatotoxicity (cirrhosis)” value is listed as 0. Further, the “Hepatotoxicity (granulomatous hepatitis)” value in [10] was 0. Moreover, the “Hepatotoxicity (association with vascular disease)” value in data set [11] stood at 0. In data set [12], the “Hepatotoxicity (steatosis)” value worked out at 0. Also, the “Hepatotoxicity (malignant tumour)” value in data set [13] worked out at 0. In [14], the “Hepatotoxicity (benign tumour)” value is 0.
As for `O=C(OCC(COC(=O)c1cccnc1)(COC(=O)c1cccnc1)COC(=O)c1cccnc1)c1cccnc1` [NICERITROL], the “Hepatotoxicity (moderate)” value in [1] is 5%; in data set [3], 1. For the same compound, the figures for the “Hepatotoxicity (acute)” value in data set [2] and in data set [4] were 0% and 0, respectively. In data set [5], the “Hepatotoxicity (cytolytic)” value amounted to 0. Moreover, the “Hepatotoxicity (choleostasis)” value in [6] is given as 0. Moreover, in [7], the “Hepatotoxicity (severe hepatitis)” value was determined as 0. In addition, the “Hepatotoxicity (chronic liver disease)” value in data set [8] worked out at 0. The “Hepatotoxicity (cirrhosis)” value in data set [9] is reported as 0. For the same compound, the “Hepatotoxicity (granulomatous hepatitis)” value in data set [10] stood at 0. Moreover, the “Hepatotoxicity (association with vascular disease)” value in data set [11] was 0. In [12], the “Hepatotoxicity (steatosis)” value is 0. The “Hepatotoxicity (malignant tumour)” value in data set [13] turned out to be 0. Also, the “Hepatotoxicity (benign tumour)” value in [14] was 0.
`CC(C)=CCC/C(C)=C/CC/C(C)=C/CCC(=O)OC/C=C(\C)CCC=C(C)C` [GEFARNATE]: the “Hepatotoxicity (moderate)” value in data set [1] is 1%; in data set [3], 1. The “Hepatotoxicity (acute)” value was determined as 0% in data set [2] and 0 in data set [4]. Besides, in [5], the “Hepatotoxicity (cytolytic)” value worked out at 0. The “Hepatotoxicity (choleostasis)” value in [6] is reported as 0. In addition, the “Hepatotoxicity (severe hepatitis)” value in data set [7] stood at 0. Moreover, the “Hepatotoxicity (chronic liver disease)” value in data set [8] turned out to be 0. Besides, in [9], the “Hepatotoxicity (cirrhosis)” value is on record as 0. Besides, the “Hepatotoxicity (granulomatous hepatitis)” value in data set [10] is on record as 0. Besides, the “Hepatotoxicity (association with vascular disease)” value in [11] worked out at 0. Moreover, the “Hepatotoxicity (steatosis)” value in [12] is reported as 0. Further, in data set [13], the “Hepatotoxicity (malignant tumour)” value is 0. The “Hepatotoxicity (benign tumour)” value in data set [14] was 0.
